Reference: the NIST ThermoML archive (doi:10.1016/j.jct.2017.10.002)
Where “and” joins values, the source holds several entries; their conditions need not be identical. Identical values can stand only once.

Assay: molar heat capacity at constant pressure
Details: 101.33 kPa, relaxation calorimetry

CCc1ncc[n-]1.CCc1ncc[n-]1.[Zn+2] [zinc(II) 2-ethylimidazolide]
molar heat capacity at constant pressure
Details	Crystal	Glass
20.19 K	17.81 J/K/mol	–
20.5 K	16.98 J/K/mol and 13.71 J/K/mol	–
20.51 K	–	17.11 J/K/mol
22.14 K	20.77 J/K/mol	–
22.42 K	16.31 J/K/mol	–
22.43 K	19.56 J/K/mol	19.76 J/K/mol
24.21 K	23.64 J/K/mol	–
24.49 K	22.58 J/K/mol and 19.45 J/K/mol	–
24.5 K	–	22.96 J/K/mol
25 K	24.79 J/K/mol and 20.1 J/K/mol and 23.3 J/K/mol	23.65 J/K/mol
26.43 K	26.91 J/K/mol	–
26.75 K	22.61 J/K/mol	–
26.76 K	25.8 J/K/mol	–
26.77 K	–	26.23 J/K/mol
28.91 K	30.23 J/K/mol	–
29.23 K	26.38 J/K/mol	–
29.24 K	29.64 J/K/mol	–
29.25 K	–	30.22 J/K/mol
30 K	31.85 J/K/mol and 27.7 J/K/mol and 30.79 J/K/mol	31.35 J/K/mol
31.62 K	34.05 J/K/mol	–
31.94 K	30.76 J/K/mol	34.68 J/K/mol
31.95 K	33.91 J/K/mol	–
34.58 K	38.37 J/K/mol	–
34.9 K	38.58 J/K/mol and 35.55 J/K/mol	39.27 J/K/mol
35 K	38.9 J/K/mol and 35.64 J/K/mol and 38.68 J/K/mol	39.25 J/K/mol
37.81 K	43 J/K/mol	–
38.12 K	40.86 J/K/mol	–
38.13 K	43.67 J/K/mol	43.79 J/K/mol
40 K	45.99 J/K/mol and 43.91 J/K/mol and 46.78 J/K/mol	46.98 J/K/mol
41.34 K	47.77 J/K/mol	–
41.65 K	46.75 J/K/mol	–
41.66 K	49.38 J/K/mol	49.23 J/K/mol
45 K	53.17 J/K/mol and 52.4 J/K/mol and 54.79 J/K/mol	54.36 J/K/mol
45.2 K	53.79 J/K/mol	–
45.5 K	53.14 J/K/mol	–
45.51 K	55.55 J/K/mol	–
45.52 K	–	55.25 J/K/mol
49.41 K	59.46 J/K/mol	–
49.71 K	60.01 J/K/mol	–
49.72 K	62.24 J/K/mol	–
49.73 K	–	61.57 J/K/mol
50 K	60.35 J/K/mol and 60.38 J/K/mol and 62.49 J/K/mol	61.68 J/K/mol
54.02 K	65.55 J/K/mol	–
54.31 K	67.15 J/K/mol	–
54.32 K	–	68.04 J/K/mol
54.33 K	68.86 J/K/mol	–
59.06 K	72.12 J/K/mol	–
59.34 K	74.94 J/K/mol	–
59.35 K	76.53 J/K/mol	75.28 J/K/mol
60 K	73.51 J/K/mol and 75.98 J/K/mol and 77.48 J/K/mol	76.22 J/K/mol
64.56 K	79.28 J/K/mol	–
64.85 K	83.06 J/K/mol	82.76 J/K/mol
64.86 K	84.44 J/K/mol	–
70 K	86.38 J/K/mol and 90.67 J/K/mol and 92.04 J/K/mol	89.94 J/K/mol
70.56 K	86.79 J/K/mol	–
70.85 K	91.72 J/K/mol	–
70.86 K	93.1 J/K/mol	90.79 J/K/mol
77.13 K	95.12 J/K/mol	–
77.42 K	100.73 J/K/mol	99.43 J/K/mol
77.43 K	102.26 J/K/mol	–
80 K	98.35 J/K/mol and 103.93 J/K/mol and 105.47 J/K/mol	102.42 J/K/mol
84.27 K	104 J/K/mol	–
84.6 K	109.85 J/K/mol	–
84.61 K	111.93 J/K/mol	108.29 J/K/mol
90 K	109.29 J/K/mol and 115.76 J/K/mol and 117.61 J/K/mol	113.66 J/K/mol
92.13 K	112.13 J/K/mol	–
92.46 K	118.78 J/K/mol	116.45 J/K/mol
92.47 K	120.62 J/K/mol	–
100 K	119.26 J/K/mol and 126.37 J/K/mol and 128.56 J/K/mol	123.8 J/K/mol
100.71 K	118.91 J/K/mol	–
101.03 K	127.27 J/K/mol	–
101.04 K	129.19 J/K/mol	124.6 J/K/mol
110 K	128.39 J/K/mol and 136.02 J/K/mol and 138.51 J/K/mol	133.08 J/K/mol
110.81 K	128.62 J/K/mol	–
111.15 K	136.95 J/K/mol	133.87 J/K/mol
111.16 K	139.25 J/K/mol	–
120 K	136.82 J/K/mol and 144.91 J/K/mol and 147.68 J/K/mol	141.69 J/K/mol
120.85 K	137.96 J/K/mol	–
121.21 K	146.05 J/K/mol	142.99 J/K/mol
121.23 K	149.18 J/K/mol	–
130 K	144.69 J/K/mol and 153.25 J/K/mol and 156.24 J/K/mol	149.79 J/K/mol
130.99 K	145.58 J/K/mol	–
131.26 K	–	150.5 J/K/mol
131.27 K	153.88 J/K/mol	–
131.28 K	157.12 J/K/mol	–
140 K	152.15 J/K/mol and 161.18 J/K/mol and 164.35 J/K/mol	157.54 J/K/mol
141.06 K	152.68 J/K/mol	–
141.38 K	–	158.36 J/K/mol
141.4 K	162.12 J/K/mol	–
141.42 K	164.9 J/K/mol	–
150 K	159.28 J/K/mol and 168.81 J/K/mol and 172.14 J/K/mol	165.02 J/K/mol
151.12 K	159.89 J/K/mol	–
151.43 K	–	166.3 J/K/mol
151.46 K	170.21 J/K/mol	–
151.47 K	173.16 J/K/mol	–
160 K	166.18 J/K/mol and 176.23 J/K/mol and 179.71 J/K/mol	172.32 J/K/mol
161.25 K	166.65 J/K/mol	–
161.56 K	–	173.36 J/K/mol
161.59 K	177.25 J/K/mol	–
161.61 K	180.61 J/K/mol	–
170 K	172.92 J/K/mol and 183.53 J/K/mol and 187.14 J/K/mol	179.51 J/K/mol
171.35 K	173.33 J/K/mol	–
171.6 K	–	180.21 J/K/mol
171.65 K	184.06 J/K/mol	–
171.67 K	188.03 J/K/mol	–
180 K	179.56 J/K/mol and 190.75 J/K/mol and 194.49 J/K/mol	186.63 J/K/mol
181.43 K	180.52 J/K/mol	–
181.69 K	–	187.69 J/K/mol
181.74 K	192.24 J/K/mol	–
181.77 K	196.44 J/K/mol	–
190 K	186.14 J/K/mol and 197.94 J/K/mol and 201.82 J/K/mol	193.72 J/K/mol
191.5 K	187.51 J/K/mol	–
191.77 K	–	195.38 J/K/mol
191.83 K	199.47 J/K/mol	–
191.86 K	203.36 J/K/mol	–
200 K	192.7 J/K/mol and 205.14 J/K/mol and 209.16 J/K/mol	200.81 J/K/mol
201.6 K	194.57 J/K/mol	–
201.91 K	–	202.56 J/K/mol
201.98 K	207.07 J/K/mol	–
202.01 K	211.73 J/K/mol	–
210 K	199.27 J/K/mol and 212.36 J/K/mol and 216.56 J/K/mol	207.92 J/K/mol
211.69 K	200.92 J/K/mol	–
211.98 K	–	209.72 J/K/mol
212.06 K	214.46 J/K/mol	–
212.09 K	218.97 J/K/mol	–
220 K	205.88 J/K/mol and 219.65 J/K/mol and 224.03 J/K/mol	215.06 J/K/mol
221.78 K	207.56 J/K/mol	–
221.99 K	–	216.74 J/K/mol
222.09 K	221.43 J/K/mol	–
222.12 K	225.68 J/K/mol	–
230 K	212.55 J/K/mol and 227.01 J/K/mol and 231.6 J/K/mol	222.25 J/K/mol
231.87 K	213.47 J/K/mol	–
232.05 K	–	223.82 J/K/mol
232.17 K	228.3 J/K/mol	–
232.21 K	233.03 J/K/mol	–
240 K	219.29 J/K/mol and 234.46 J/K/mol and 239.29 J/K/mol	229.49 J/K/mol
241.95 K	220.69 J/K/mol	–
242.11 K	–	230.23 J/K/mol
242.25 K	235.6 J/K/mol	–
242.28 K	240.2 J/K/mol	–
250 K	226.12 J/K/mol and 242.01 J/K/mol and 247.11 J/K/mol	236.79 J/K/mol
252.04 K	227.71 J/K/mol	–
252.26 K	–	238.21 J/K/mol
252.41 K	243.81 J/K/mol	–
252.44 K	248.76 J/K/mol	–
260 K	233.06 J/K/mol and 249.68 J/K/mol and 255.08 J/K/mol	244.16 J/K/mol
262.15 K	234.66 J/K/mol	–
262.32 K	–	245.55 J/K/mol
262.49 K	251.06 J/K/mol	–
262.53 K	256.2 J/K/mol	–
270 K	240.1 J/K/mol and 257.46 J/K/mol and 263.21 J/K/mol	251.6 J/K/mol
272.26 K	239.9 J/K/mol	–
272.38 K	–	253.18 J/K/mol
272.57 K	259.14 J/K/mol	–
272.61 K	264.93 J/K/mol	–
273.15 K	242.35 J/K/mol and 259.94 J/K/mol and 265.8 J/K/mol	253.96 J/K/mol
280 K	247.27 J/K/mol and 265.38 J/K/mol and 271.5 J/K/mol	259.1 J/K/mol
282.33 K	249.22 J/K/mol	–
282.34 K	–	261.68 J/K/mol
282.56 K	268.2 J/K/mol	–
282.6 K	274.43 J/K/mol	–
290 K	254.56 J/K/mol and 273.43 J/K/mol and 279.96 J/K/mol	266.68 J/K/mol
292.42 K	254.66 J/K/mol	–
292.48 K	–	268.78 J/K/mol
292.71 K	275.78 J/K/mol	–
292.77 K	282.45 J/K/mol	–
298.15 K	260.6 J/K/mol and 280.09 J/K/mol and 287 J/K/mol	272.9 J/K/mol
300 K	261.99 J/K/mol and 281.62 J/K/mol and 288.61 J/K/mol	274.31 J/K/mol
302.52 K	265.92 J/K/mol	–
302.54 K	–	275.95 J/K/mol
302.81 K	283.82 J/K/mol	–
302.88 K	291.43 J/K/mol	–
